Blank lines part the entries; values can stand above or below the compound they belong to. Activity calls are given as the source filed them. The calls are words filed in the database; no cut-off is given here.
Experiments:
[1] = Binding affinity to sh(-CUG-) RNA (unknown origin) at 10 nM by fluorescence spectra analysis
[2] = Binding affinity to sh(-CUA-) RNA (unknown origin) at 10 nM by fluorescence spectra analysis
[3] = Binding affinity to ssRNA-5 mer (unknown origin) at 10 nM by fluorescence spectra analysis
[4] = Binding affinity to sh(-GUA-) RNA (unknown origin) at 10 nM by fluorescence spectra analysis
[5] = Binding affinity to sh(-GUG-) RNA (unknown origin) at 10 nM by fluorescence spectra analysis
[6] = Binding affinity to sh(-CUG-) RNA (unknown origin) by fluorescence titration method
[7] = Binding affinity to sh(-GUA-) RNA (unknown origin) by fluorescence titration method
[8] = Binding affinity to G0 RNA (unknown origin) at 10 nM by fluorescence spectra analysis
[9] = Binding affinity to stem-loop RNA (unknown origin) at 10 nM by fluorescence spectra analysis
[10] = Binding affinity to stem-duplex RNA (unknown origin) at 10 nM by fluorescence spectra analysis
[11] = Binding affinity to sh(-GUG-) RNA (unknown origin) assessed as increase in fluorescence at 10 nM by fluorescence spectra analysis relative to control
[12] = Binding affinity to sh(-CUA-) RNA (unknown origin) assessed as increase in fluorescence at 10 nM by fluorescence spectra analysis
[13] = Binding affinity to ssRNA-5 mer (unknown origin) assessed as increase in fluorescence at 10 nM by fluorescence spectra analysis
[14] = Binding affinity to sh(-CUG-) RNA (unknown origin) assessed as increase in fluorescence at 10 nM by fluorescence spectra analysis relative to control
[15] = Binding affinity to sh(-GUA-) RNA (unknown origin) assessed as increase in fluorescence at 10 nM by fluorescence spectra analysis relative to control
[16] = Binding affinity to sh(-GUG-) RNA (unknown origin) by fluorescence titration method
[17] = Binding affinity to sh(-GUG-) RNA (unknown origin) assessed as hypochromic effect at 10 uM by UV-vis spectral analysis
[18] = Binding affinity to sh(-CUA-) RNA (unknown origin) assessed as change in UV spectrum at 10 uM by UV-vis spectral analysis
[19] = Binding affinity to sh(-GUG-) RNA (unknown origin) at 10 uM by circular dichroism
[20] = Binding affinity to sh(-CUA-) RNA (unknown origin) at 10 uM by circular dichroism
[21] = Binding affinity to wild-type full length pre-miRNA-17 (unknown origin) assessed as increase in fluorescence intensity at 10 nM by fluorescence spectra analysis
[22] = Binding affinity to hairpin G2 RNA mutant (unknown origin) assessed as increase in fluorescence intensity at 10 nM by fluorescence spectra analysis
[23] = Binding affinity to mismatch G2 RNA mutant (unknown origin) assessed as increase in fluorescence intensity at 10 nM by fluorescence spectra analysis
[24] = Binding affinity to overhang G2 RNA mutant (unknown origin) assessed as increase in fluorescence intensity at 10 nM by fluorescence spectra analysis
[25] = Binding affinity to sh(-GUG-) RNA (unknown origin) assessed as bathochromic effect at 10 uM by UV-vis spectral analysis

Activity [1]: Active | Activity [2]: inactive | Activity [3]: inactive | Activity [4]: inactive | Activity [5]: Active | Kd [6]: 155 nM | Kd [7]: 202 nM
SMILES: CN(C)CCCNC(=O)Cn1cc2c(nc1=O)Nc1c(OCCN)cccc1O2

Activity [8]: Active | Activity [9]: Active | Activity [10]: Active | Activity [11]: Active | fold change (FC) [11]: 7 | Activity [12]: inactive | Activity [13]: inactive | fold change (FC) [14]: 4.1 | fold change (FC) [15]: 2.6 | Kd [16]: 9 nM | Kd [6]: 27 nM | Kd [7]: 103 nM | Activity [17]: Active | Activity [18]: inactive | Activity [19]: Active | Activity [20]: inactive | Activity [21]: Active | Activity [22]: Active | Activity [23]: Active | Activity [24]: Active | Activity [25]: Active
SMILES: CN(CCCNC(=O)Cn1cc2c(nc1=O)Nc1c(OCCN)cccc1O2)CCCNC(=O)Cn1cc2c(nc1=O)Nc1c(OCCN)cccc1O2

Source: ChEMBL document CHEMBL4387712, “Development of the binding molecules for the RNA higher-order structures based on the guanine-recognition by the G-clamp” (Bioorg Med Chem Lett, 2019)
